Values of other authors as cited in patent US20240238319A1, “CEREAL-BASED COMPOSITIONS WITH A MIX OF GALACTO-OLIGOSACCHARIDES/FRUCTO- OLIGOSACCHARIDES AND USES THEREOF FOR IMPROVING IRON ABSORPTION” (COMPAGNIE GERVAIS DANONE, priority 2021, published 2024).

Details: when providing at least 80% of the WHO recommended dietary allowance

For `[Fe]` [iron], the “increased risk of diarrhea” value is given as 15%.
